According to patent US20250205233A1, “EPIDERMAL GROWTH FACTOR RECEPTOR (EGFR) TYROSINE KINASE INHIBITORS IN COMBINATION WITH AN AKT INHIBITOR FOR THE TREATMENT OF CANCER” (AstraZeneca AB, priority 2022, published 2025):
“Also recorded” adds a separate entry of the source. Like-named read-outs stand apart in the source and are kept apart here.

Legend:
[1] = system: P-EGFR, MAPK signalling, P-AKT and P-S6 in PC9-PIK3CAm cells; experiment: Intracellular changes by WB analysis; format: cell-based, human; settings: 4 h
[2] = system: p-S6 in PC9 PTEN^KO cells; experiment: Intracellular changes by WB analysis; format: cell-based, human; settings: treated for 3 weeks with osimertinib 160 nM
PC9 PTEN^KO xenograft = experiment: Xenograft model, tumour volume; format: in vivo, NOD/SCID mice
Protocol: (§1) e) PC9 PTEN-KO and HCC827 PTEN-KO cell lines were cultured in RPMI1640 supplemented with 10% FCS and cultured in a humidified incubator with 5% CO2 at 37° C. PC9 PTEN-KO and HCC827 PTEN-KO xenografts were established by subcutaneous implantation of 5×10^6, cells per animal, in 100 μL of cell suspension including 50% matrigel, into the flank of female NOD/SCID and nude mice respectively. All mice were older than 6 weeks at the time of cell implant. Tumour growth was monitored twice weekly by bilateral calliper measurements and tumour volume calculated using the formula TV (mm3)=[length (mm)×width (mm)2]×0.5, where the length and the width are the longest and the shortest diameters of the tumour.

PC9 PIK3CA^H1047R cells = settings: osimertinib alone
PC9 PTEN^KO cells = experiment: Clonogenic assay (long term); format: cell-based, human; settings: 160 nM osimertinib
PC9-PIK3CAm cells = experiment: Clonogenic assay; format: cell-based, human; settings: osimertinib 160 nM, 8 days, crystal violet
Source text: Cells were stained with Crystal violet at the end of the treatment (8 days) and cell density (% surface) quantified by ImageJ.

HCC-827 PTEN^KO cells = format: cell-based, human
[3] = system: HCC-827 PTEN^KO xenograft; settings: mouse
Protocol: as §1

[4] = system: PIK3CA H1047R and PIK3CA E453K-positive cells; experiment: Osimertinib selection of CRISPR knock-in cell pools, DNA sequencing; format: cell-based, human; settings: osimertinib (100 nM) for 3 weeks; NGS and SANGER sequencing
Source text: As the efficiency of knock-ins using this technology is usually low, only a small proportion of cells was expected to be genetically modified, thus mimicking the emergence of a co-occurring resistance mutation in a tumour.

C=CC(=O)Nc1cc(Nc2nccc(-c3cn(C)c4ccccc34)n2)c(OC)cc1N(C)CCN(C)C [osimertinib, N-(2-{2-dimethylaminoethyl-methylamino}-4-methoxy-5-{[4-(1-methylindol-3-yl)pyrimidin-2-yl]amino}phenyl)prop-2-enamide]
levels of P-AKT and P-S6 (western blot) ([1]; 160 nM osimertinib alone, PC9-PIK3CAm cells): refractory
P-EGFR levels and MAPK signalling (western blot) ([1]; 160 nM osimertinib, parental and PC9-PIK3CAm cells): downregulation of P-EGFR levels and MAPK signalling
p-S6 levels (western blot) [2]: persistent p-S6 levels
degree of resistance to Osimertinib in vivo (PC9 PTEN^KO xenograft): at best very modest
osimertinib-induced apoptotic response (caspase 3/7 activation) compared to parental PC9 (PC9 PIK3CA^H1047R cells): diminished apoptotic response
osimertinib-induced apoptotic response (caspase 3/7 activation) compared to parental PC9 (PC9 PIK3CA^H1047R cells; listed as Osimertinib): Diminished apoptotic response
cell density higher than parental PC9 cells (PC9 PTEN^KO cells): 2 ×
clonogenic growth: resistance to osimertinib compared to parental cells (PC9 PTEN^KO cells; 3 or 5 weeks): milder resistance phenotype; also recorded: develop resistance
clonogenic growth (cell density): resistance to osimertinib compared to parental PC9 (PC9-PIK3CAm cells): developed resistance
clonogenic growth: resistance to osimertinib compared to parental cells (HCC-827 PTEN^KO cells): resulted in osimertinib resistance; also recorded: develop resistance
cell density (% surface) higher than parental HCC-827 (HCC-827 PTEN^KO cells; 160 nM osimertinib, after 3 weeks): 20 X
degree of resistance to Osimertinib in vivo [3]: at best very modest
outgrowth of PIK3CA-mutant cells under osimertinib selection [4]: conferred resistance
